Measurements reported in patent US11432573B2, “Food and beverage sweeteners” (priority 2017, dated 2022).

Experiment: Serum glucose levels in subjects after consuming coffee with sweetener blend or sucrose (Example 1)
Assay type: in vivo, human
Conditions: for serum glucose (Average): average across three subjects
Protocol: The following Example summarizes the impact of the above-listed formulas on serum glucose levels within three different subjects. Specifically, 6.0 grams of a blend of Formula-1 through Formula-5 (above) were stirred vigorously into one shot of regular caffeinated expresso coffee that was topped to 350 milliliters of warm water. The coffee was then completely consumed by each subject within 5 minutes, following a time=0 measurement of each subject's serum glucose levels. Each subject's serum glucose levels were subsequently measured at 15 minute intervals, up to 100 minutes following the time=0 measurement. The impact of traditional sucrose on each of the subject's serum glucose levels was also measured, so that the impact of the test sweetener composition on serum glucose levels could be measured relative to such impact by traditional sucrose. The following Tables summarize the serum glucose level measurements observed with each subject (Table-1, Table-2, and Table-3), along with the average across each of the three subjects (Table-4)(the data represent mmol/L serum glucose).

**Q.** Which serum glucose (Subject 1, T = 0 (before consumption)) does the source give for OC[C@H]1O[C@@](CO)(O[C@H]2O[C@H](CO)[C@@H](O)[C@H](O)[C@H]2O)[C@@H](O)[C@@H]1O [Sucrose, sucrose] here?
**A.** 5.20 mmol/L

**Q.** What about the serum glucose (Subject 1, T = 15 minutes) of the same compound?
**A.** 6.20 mmol/L

**Q.** And the serum glucose (Subject 1, T = 30 minutes)?
**A.** 7.60 mmol/L

**Q.** What about the serum glucose (Subject 1, T = 45 minutes) of the same compound?
**A.** 7.60 mmol/L

**Q.** And the serum glucose (Subject 1, T = 60 minutes)?
**A.** 7.00 mmol/L

**Q.** And the serum glucose (Subject 1, T = 75 minutes)?
**A.** 6.20 mmol/L

**Q.** And the serum glucose (Subject 1, T = 100 minutes)?
**A.** 6.00 mmol/L

**Q.** What about the serum glucose (Subject 2, T = 0 (before consumption)) of the same compound?
**A.** 5.10 mmol/L

**Q.** What about the serum glucose (Subject 2, T = 15 minutes) of the same compound?
**A.** 6.00 mmol/L

**Q.** And the serum glucose (Subject 2, T = 30 minutes)?
**A.** 7.50 mmol/L

**Q.** And the serum glucose (Subject 2, T = 45 minutes)?
**A.** 7.40 mmol/L

**Q.** And the serum glucose (Subject 2, T = 60 minutes)?
**A.** 7.00 mmol/L

**Q.** And the serum glucose (Subject 2, T = 75 minutes)?
**A.** 6.00 mmol/L

**Q.** And the serum glucose (Subject 2, T = 100 minutes)?
**A.** 5.60 mmol/L

**Q.** What about the serum glucose (Subject 3, T = 0 (before consumption)) of the same compound?
**A.** 5.20 mmol/L

**Q.** What about the serum glucose (Subject 3, T = 15 minutes) of the same compound?
**A.** 5.60 mmol/L

**Q.** What about the serum glucose (Subject 3, T = 30 minutes) of the same compound?
**A.** 7.70 mmol/L

**Q.** And the serum glucose (Subject 3, T = 45 minutes)?
**A.** 7.80 mmol/L

**Q.** And the serum glucose (Subject 3, T = 60 minutes)?
**A.** 7.40 mmol/L

**Q.** What about the serum glucose (Subject 3, T = 75 minutes) of the same compound?
**A.** 6.40 mmol/L

**Q.** What about the serum glucose (Subject 3, T = 100 minutes) of the same compound?
**A.** 6.20 mmol/L

**Q.** What about the “serum glucose (Average)” value (T = 0 (before consumption)) of the same compound?
**A.** 5.17 mmol/L

**Q.** What about the “serum glucose (Average)” value (T = 15 minutes) of the same compound?
**A.** 5.93 mmol/L

**Q.** What about the “serum glucose (Average)” value (T = 30 minutes) of the same compound?
**A.** 7.60 mmol/L

**Q.** What about the “serum glucose (Average)” value (T = 45 minutes) of the same compound?
**A.** 7.60 mmol/L

**Q.** What about the “serum glucose (Average)” value (T = 60 minutes) of the same compound?
**A.** 7.13 mmol/L

**Q.** What about the “serum glucose (Average)” value (T = 75 minutes) of the same compound?
**A.** 6.20 mmol/L

**Q.** What about the “serum glucose (Average)” value (T = 100 minutes) of the same compound?
**A.** 5.93 mmol/L
